According to PubChem BioAssay AID248 (DTP/NCI, 2004):
Toxic doses and inconclusive results are not listed. Cut-off read from the data, not from the text of the source: active = T/C of 150% or more; inactive = T/C below 125%.

Test system: L1210 leukemia ip in BDF1 mice, survival T/C
Assay: NCI In Vivo Anticancer Drug Screen. Data for tumor model L1210 Leukemia (intraperitoneal) in B6D2F1 (BDF1) mice
Conditions: endpoint: mean survival time, higher = longer survival
In short: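 Tumor was transplanted into mice, which were then dosed with test compound or vehicle alone. Survival was recorded for each group, and the treated figure was expressed relative to the control figure.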

Measured: T/C

Cc1c2c(cc3c1OCN(C)C3)CN(C)CO2
inactive: dose: 50.0 mg/kg/injection, schedule: Q01DX001 (ip), vehicle: saline 104 % of control | dose: 100.0 mg/kg/injection, schedule: Q01DX001 (ip), vehicle: saline 101 % of control | dose: 200.0 mg/kg/injection, schedule: Q01DX001 (ip), vehicle: saline 107 % of control

Cc1ccc(C(C)C)cc1N1C(=O)C2C(C1=O)C1(Cl)C(Cl)=C(Cl)C2(Cl)C1(Cl)Cl (centres undefined)
inactive: dose: 100.0 mg/kg/injection, schedule: Q01DX009 (ip), vehicle: Klucel (hydroxypropylcellulose) (HPC) 92 % of control | dose: 200.0 mg/kg/injection, schedule: Q01DX009 (ip), vehicle: Klucel (hydroxypropylcellulose) (HPC) 97 % of control | dose: 400.0 mg/kg/injection, schedule: Q01DX009 (ip), vehicle: Klucel (hydroxypropylcellulose) (HPC) 91 % of control

CC(C)C(Br)C(Br)c1ccccc1 (centres undefined)
inactive: dose: 50.0 mg/kg/injection, schedule: Q01DX009 (ip), vehicle: saline with Tween-80 96 % of control | dose: 100.0 mg/kg/injection, schedule: Q01DX009 (ip), vehicle: saline with Tween-80 102 % of control | dose: 200.0 mg/kg/injection, schedule: Q01DX009 (ip), vehicle: saline with Tween-80 96 % of control
